# Test results from patent US7582483B2, “Method of detecting viable cells” (Fuji Electric Holdings Co., Ltd., priority 2004, dated 2009).
# Test system: Escherichia coli
# Test: detection of viable microbes in solid food (namul of spinach) with added Escherichia coli, CFDA and Phenol Red solutions at various pH
# Type: cell-based
# Details: pH 5 of the CFDA solution and the Phenol Red solution
# Procedure: In a second example, detection of live microbes was conducted using solid food (namul of spinach) to which Escherichia coli were added. The treatment to extract the microbes from the solid food into liquid was carried out referring to “A Guide to Food Sanitation Test, Volume on Microorganisms” (in Japanese; published by Japan Food Hygiene Association, 1990). Ten grams of the solid food (namul of spinach) to which Escherichia coli (about 10^7) was added was aliquoted into a stomacher bag. (The stomacher bag is made of flexible plastic film such as polyethylene and sterilized by radiation. There is a compartment inside the stomacher bag created by a partition of non-woven fabric or a plastic film with a pore size of about 0.28 mm diameter, and a liquid component can be extracted excluding relatively large solid bodies from the compartment. The aliquot of the solid food is supplied with 90 mL of sterile phosphate buffer saline and crushed and dispersed using a stomacher. A stomacher is an apparatus for extracting live microbes contained in food to liquid. In the stomacher, the stomacher bag containing food is placed between a fixed plate and a paddle and the food is crushed and dispersed by squeezing the bag containing food while moving the paddle back and forth. […] Using the liquid, viable microbes were detected in a procedure similar to that in Example 1. […]
substance,measurement,value
carboxyfluorescein diacetate [CFDA],staining of viable microbes with the fluorescent dye,the viable microbes were not stained with the fluorescent dye
